Consider 24 compounds from publication PMC6272327, “Discovery of Metal Ions Chelator Quercetin Derivatives with Potent Anti-HCV Activities” (Molecules, 2015).

The target in one data set is HCV NS5B polymerase. Also noted: method as in PMID 14695815, PMID 15481971, PMID 15149686. Particulars: HCV NS5B polymerase inhibition, Figures 1 and 2; cited from earlier work.
Data set [1] has as its system HCV infectious virus J399EM. Details: method as in PMID 22445328. Particulars: at 50 μM; previous results; cited from earlier work.
A short description of data set [2]: Cell viability / cytotoxicity by MTT method. The data set is classed as cell-based. The following applies: human. As to the method: (§1) The inhibition of HCV by all synthesized quercetin derivatives was evaluated following a previously reported procedure. All newly synthesized compounds were tested in authentic HCV infection/replication system in the human hepatoma cell lines Huh7.5.1 using mycophenolic acid (MPA) as control compound. The cytotoxicity effect of the test compounds was also evaluated in the same cell line by MTT method. Antiviral effect and cytotoxicity effect were summarized as EC50 and CC50 respectively, as well as the selective index (SI) which is the ratio of CC50 to EC50. The stability of quercetin-3-O-ester compounds were also tested in the same buffer as the antiviral activity assay at 37 °C and the hydrolysate was measured by HPLC.
After the EGFP signal was read, cell viability was measured in the same plate by the MTT [3-(4,5-dimethylthiazol-2-yl)-2,5-diphenyltetrazolium bromide; Sigma-Aldrich, St. Louis, MO, USA] method. Briefly, MTT (1 mg/mL) was dissolved in PBS. Cell culture supernatants were removed and replaced with MTT and further cultured for 4 h; cells were then lysed with 10% sodium dodecyl sulfate (SDS), 50% N,N-dimethylformamide, pH 7.2. OD570 values were read. The percentage of cell death was calculated against the control well without compounds.

Data set [3] relates to HCV infectious virus J399EM. Briefly: Anti-HCV assay in authentic HCV infection/replication system (J399EM EGFP reporter virus) in Huh7.5.1 cells. It is filed as cell-based, hepatitis C virus (JFH1-derived, genotype 2a). Particulars: for EC50: Hepatitis C virus, Huh-7.5.1, 72 h; for SI (selectivity index): ratio of CC50 to EC50, Huh7.5.1 cells. As to the method: as §1
The biological assays were performed following a previously reported procedure. The Huh7.5.1 cell line and the HCV infectious virus J399EM were kindly provided by Xin-Wen Chen, Wuhan Institute of Virology, Chinese Academy of Sciences. Huh7.5.1 cells were cultured in Dulbecco’s modified Eagle’s medium (DMEM) containing 10% (v/v) fetal bovine serum, 0.5 mg/mL G418, 100 IU/mL penicillin, and […].
J399EM is an infectious HCV virus derived from the JFH1 virus (genotype 2a) by insertion of enhanced green fluorescent protein (EGFP) into the HCV NS5A region. The establishment of the infectious J399EM HCV virus has been described previously. J399EM was propagated in Huh7.5.1 cells. Briefly, Huh7.5.1 cells were infected with J399EM at MOI = 0.1 and cultured for 4 days. Culture supernatant was collected and filtered through a 0.45 μm membrane and stored at −80 °C as virus stock. Virus titer was tested in Huh7.5.1 cells. Stocks were serially diluted, and the foci forming units (FFU) were determined as the number of fluorescent colonies formed in infected Huh7.5.1.
All the compounds were first dissolved in DMSO at 50 mM, and then diluted to various concentrations (50 μM, 25 μM, 12.5 μM, 6.3 μM and 3.1 μM). Approximately 1 × 10^4 Huh7.5.1 cells per well were plated in an opaque 96-well tissue culture plate (Costar 3904). The next day, the medium was replaced by J399EM virus at an MOI of 0.3. Four hours later, the virus inoculum was removed and medium containing different concentrations of compounds was added. After an additional 72 h of incubation, the culture medium was removed and the EGFP autofluorescence was measured by using a […] with excitation at 488 nm and emission at 516 nm. Compounds and controls were performed in duplicate and each experiment repeated independently at least twice.

As for meconic acid [Compound 1c], the IC50 at HCV NS5B polymerase is 2.3 µM.
Consider `O=c1c(O)c(-c2ccc(O)cc2)oc2cc(O)cc(O)c12` [kaempferol], for which the “inhibition against HCV” value in data set [1] is reported as 51.9%.
As to `O=c1c(O)c(-c2ccc(O)c(O)c2)oc2cc(OCc3ccc([N+](=O)[O-])cc3)cc(O)c12` [Compound 3s, 2-(3,4-Dihydroxyphenyl)-3,5-dihydroxy-7-((4-nitrobenzyl)oxy)-4H-chromen-4-one], the melting point lay within 253.5 to 254.5 °C. This compound also had a cytotoxic concentration (CC50) in data set [2] of 19.6 ± 0.2 µM. In data set [3], a half-maximal response (EC50) required 4.3 ± 0.2 µM and the “SI (selectivity index)” value was found to be 4.5.
The matching figures for `Nc1ccc(C(=O)Oc2c(-c3ccc(O)c(O)c3)oc3cc(O)cc(O)c3c2=O)cc1` [Compound 4l, 2-(3,4-Dihydroxyphenyl)-5,7-dihydroxy-4-oxo-4H-chromen-3-yl 4-aminobenzoate]: 233 to 234 °C, over 50 µM, 23.8 ± 0.8 µM and over 2.1.
On to `O=C(O)/C(O)=C/C(=O)c1ccccc1` [Compound 1a], for which the half-maximal inhibitory concentration (IC50) at HCV NS5B polymerase is 5.7 µM.
Consider `O=c1c(O)c(-c2ccc(O)c(O)c2)oc2cc(OCc3ccccc3)cc(O)c12` [Compound 3a, 7-(Benzyloxy)-2-(3,4-dihydroxyphenyl)-3,5-dihydroxy-4H-chromen-4-one], for which the melting point is 255 to 257 °C. In data set [2], this compound displayed a CC50 of over 50 µM. In data set [3], the midpoint of the response, the EC50, lay at 8.7 ± 0.2 µM and the “SI (selectivity index)” value was over 5.8.
The matching figures for `N#Cc1ccccc1C(=O)Oc1c(-c2ccc(O)c(O)c2)oc2cc(O)cc(O)c2c1=O` [Compound 4e, 2-(3,4-Dihydroxyphenyl)-5,7-dihydroxy-4-oxo-4H-chromen-3-yl 2-cyanobenzoate]: 196 to 197 °C, over 50 µM, 20.2 ± 8.6 µM and over 2.5.
Take `O=c1c(O)c(-c2ccc(O)c(O)c2)oc2cc(OCc3cccc(F)c3)cc(O)c12` [Compound 3h, 2-(3,4-Dihydroxyphenyl)-7-((3-fluorobenzyl)oxy)-3,5-dihydroxy-4H-chromen-4-one]: the melting point lay within 243 to 245 °C. Besides, the midpoint of cytotoxicity in data set [2], the CC50, lay at 44.5 ± 3.7 µM. The same compound registered an EC50 in data set [3] of 6.3 ± 0.2 µM.
As for `O=c1c(O)c(-c2ccc(O)c(O)c2)oc2cc(OCc3ccc(Br)cc3)cc(O)c12` [Compound 3p, 7-((4-Bromobenzyl)oxy)-2-(3,4-dihydroxyphenyl)-3,5-dihydroxy-4H-chromen-4-one], the melting point lay in the range of 256 to 257 °C. The same compound came in with a CC50 in data set [2] of 35.4 ± 1.6 µM. Further, in data set [3], the concentration for a half-maximal effect (EC50) was 5.5 ± 1.5 µM and the “SI (selectivity index)” value is recorded as 6.4.
The matching figures for `O=C(Oc1c(-c2ccc(O)c(O)c2)oc2cc(O)cc(O)c2c1=O)c1ccc(F)cc1` [Compound 4k, 2-(3,4-Dihydroxyphenyl)-5,7-dihydroxy-4-oxo-4H-chromen-3-yl 4-fluorobenzoate]: 203 to 205 °C, 35 ± 2.4 µM, 9.7 ± 3.1 µM and 3.6.
`COc1cc(-c2oc3cc(O)cc(O)c3c(=O)c2O)ccc1O` [isorhamnetin]: the “inhibition against HCV” value in data set [1] is 47.3%.
Consider `O=C(Oc1c(-c2ccc(O)c(O)c2)oc2cc(O)cc(O)c2c1=O)c1ccc(Cl)cc1` [Compound 4o, 2-(3,4-Dihydroxyphenyl)-5,7-dihydroxy-4-oxo-4H-chromen-3-yl 4-chlorobenzoate], for which the melting point fell in the range of 194 to 195 °C. The compound also came in with a 50% cytotoxic concentration (CC50) in data set [2] of over 50 µM. Also, in data set [3], it took 14.3 ± 2.2 µM to reach a half-maximal effect (EC50) and the “SI (selectivity index)” value was over 3.5.
The corresponding values for `O=c1c(O)c(-c2ccc(O)c(O)c2)oc2cc(OCc3ccccc3Br)cc(O)c12` [Compound 3d, 7-((2-Bromobenzyl)oxy)-2-(3,4-dihydroxyphenyl)-3,5-dihydroxy-4H-chromen-4-one] are 248 to 249 °C, 37.4 ± 0.8 µM, 5.5 ± 0.2 µM and 6.8.
The matching figures for `O=c1c(O)c(-c2ccc(O)c(O)c2)oc2cc(OCc3cccc(Cl)c3)cc(O)c12` [Compound 3i, 7-((3-Chlorobenzyl)oxy)-2-(3,4-dihydroxyphenyl)-3,5-dihydroxy-4H-chromen-4-one]: 260 to 261 °C, 27.2 ± 0.2 µM, 3.8 ± 0.2 µM and 7.2.
As to `N#Cc1c(Cl)cc(Cl)cc1COc1cccc(C(=O)/C=C(\O)C(=O)O)c1` [Compound 1b], the half-maximal inhibitory concentration (IC50) on HCV NS5B polymerase is 0.045 µM.
Compound `N#Cc1ccc(COc2cc(O)c3c(=O)c(O)c(-c4ccc(O)c(O)c4)oc3c2)cc1` [Compound 3r, 4-(((2-(3,4-Dihydroxyphenyl)-3,5-dihydroxy-4-oxo-4H-chromen-7-yl)oxy)methyl)benzonitrile] gave a melting point of 252 to 254 °C. Further, the midpoint of cytotoxicity in data set [2], the CC50, lay at 10.1 ± 0.1 µM. In data set [3], the midpoint of the response, the EC50, lay at 6.2 ± 0.2 µM and the “SI (selectivity index)” value worked out at 1.6.
Compound `O=C(Oc1c(-c2ccc(O)c(O)c2)oc2cc(O)cc(O)c2c1=O)c1cccc(Cl)c1` [Compound 4j, 2-(3,4-Dihydroxyphenyl)-5,7-dihydroxy-4-oxo-4H-chromen-3-yl 3-chlorobenzoate] registered a melting point of over 300 °C. In addition, the CC50 in data set [2] is over 50 µM. The same compound registered a 50% effective concentration (EC50) in data set [3] of 23 ± 3.2 µM.
Compound `O=C(Oc1c(-c2ccc(O)c(O)c2)oc2cc(O)cc(O)c2c1=O)c1ccccc1` [Compound 4a, 2-(3,4-Dihydroxyphenyl)-5,7-dihydroxy-4-oxo-4H-chromen-3-yl benzoate] returned a melting point of 173 to 174 °C. In data set [2], this compound displayed a cytotoxic concentration (CC50) of over 50 µM. Further, in data set [3], the concentration for a half-maximal effect (EC50) was 14.3 ± 5.1 µM and the “SI (selectivity index)” value is over 3.5.
The matching figures for `O=c1c(O)c(-c2ccc(O)c(O)c2)oc2cc(OCc3ccc(F)cc3)cc(O)c12` [Compound 3n, 2-(3,4-Dihydroxyphenyl)-7-((4-fluorobenzyl)oxy)-3,5-dihydroxy-4H-chromen-4-one]: 254 to 255 °C, 31.9 ± 3.4 µM, 5.1 ± 0.5 µM and 6.2.
As for `Cc1cccc(COc2cc(O)c3c(=O)c(O)c(-c4ccc(O)c(O)c4)oc3c2)c1` [Compound 3k, 2-(3,4-Dihydroxyphenyl)-3,5-dihydroxy-7-((3-methylbenzyl)oxy)-4H-chromen-4-one], the melting point lay within 224 to 226 °C. Further, in data set [2], the 50% cytotoxic concentration (CC50) stood at 32.5 ± 0.7 µM. In addition, in data set [3], the EC50 was 4.7 ± 0.4 µM and the “SI (selectivity index)” value turned out to be 6.9.
`N#Cc1ccc(C(=O)Oc2c(-c3ccc(O)c(O)c3)oc3cc(O)cc(O)c3c2=O)cc1` [Compound 4n, 2-(3,4-Dihydroxyphenyl)-5,7-dihydroxy-4-oxo-4H-chromen-3-yl 4-cyanobenzoate]: the melting point is 196 to 197 °C. Further, the CC50 in data set [2] is over 50 µM. In data set [3], the 50% effective concentration (EC50) stood at 11.4 ± 2.3 µM and the “SI (selectivity index)” value is given as over 4.4.
Turning to `O=C(O)c1nc(-c2cccs2)nc(O)c1O` [Compound 1d, dihydroxypyrimidine carboxylic acid], at HCV NS5B polymerase, the 50% inhibitory concentration (IC50) is 2.6 µM.
`N#CCCCOc1c(-c2ccc(O)c(O)c2)oc2cc(O)cc(O)c2c1=O` [Compound 12d, 4-(2-(3,4-Dihydroxyphenyl)-5,7-dihydroxy-4-oxo-4H-chromen-3-yloxy)butanenitrile] displayed a melting point of 169 to 171 °C. This compound gave a CC50 in data set [2] of over 50 µM. In data set [3], this compound came in with an EC50 of over 50 µM.
Consider `O=c1c(O)c(-c2ccc(O)c(O)c2)oc2cc(OCc3cccc([N+](=O)[O-])c3)cc(O)c12` [Compound 3m, 2-(3,4-Dihydroxyphenyl)-3,5-dihydroxy-7-((3-nitrobenzyl)oxy)-4H-chromen-4-one], for which the melting point was 264 to 266 °C. The compound also registered a 50% cytotoxic concentration (CC50) in data set [2] of 15 ± 0.1 µM. Besides, in data set [3], the EC50 amounted to 6.6 ± 1.1 µM and the “SI (selectivity index)” value is 2.3.
